Test results as given in the supplement of paper PMC10331698.
± gives the standard deviation of the averaged measurements.

Columns and labels:
Assay in all cases: level (log10 ratio to DMSO vehicle control); higher = higher biomarker level / cell amount than vehicle control
Settings in all cases: in DMSO
[1] = compound: C=CC(F)(F)C(F)(F)C(F)(F)C(F)(F)C(F)(F)C(F)(F)C(F)(F)C(F)(F)C=C [1,8-Divinylperfluorooctane]
Method: (§1)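 BioMAP Diversity Plus panel of 12 human primary cell co-culture systems (3C, 4H, LPS, SAg, BT, BF4T, BE3C, CASM3C, HDF3CGF, KF3CT, MyoF, Mphg). Compounds were added 1 h before stimulation and left for 24 h (MyoF 48 h; BT 72 h for soluble read-outs or 6 d for IgG). Biomarkers were read by ELISA, cytotoxicity by SRB, PBMC viability and proliferation by Alamar Blue. Each well value was divided by the mean of 8 DMSO control wells on the same plate and log10 transformed; duplicate blinded samples were tested at 4 concentrations.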

[2] = compound: CCN(CCO)S(=O)(=O)C(F)(F)C(F)(F)C(F)(F)C(F)(F)C(F)(F)C(F)(F)C(F)(F)C(F)(F)F [N-Ethyl-N-(2-hydroxyethyl)perfluorooctanesulfonamide]
Method: as §1

[3] = compound: FC(F)C(F)(F)COCC1CO1 [((2,2,3,3-Tetrafluoropropoxy)methyl)oxirane]
Method: as §1

Perfluorobutanoic acid = compound: O=C(O)C(F)(F)C(F)(F)C(F)(F)F [Perfluorobutanoic acid]
Method: as §1

[4] = compound: O=C(O)C(F)(F)C(F)(F)C(F)F [4H-Perfluorobutanoic acid]
Method: as §1

[5] = compound: O=C(O)C(F)(F)OC(F)(F)C(F)(F)OC(F)(F)C(=O)O [Perfluoro-3,6-dioxaoctane-1,8-dioic acid]
Method: as §1

[6] = compound: O=S(=O)(O)C(F)(F)C(F)(F)C(F)(F)C(F)(F)C(F)(F)C(F)(F)F [Perfluorohexanesulfonic acid]
Method: as §1

Test System	level (log10) ([1]; 6700 nM)	level (log10) ([1]; 20000 nM)	level (log10) ([2]; 6700 nM)	level (log10) ([2]; 20000 nM)	level (log10) ([3]; 6700 nM)	level (log10) ([3]; 20000 nM)	level (log10) ([3]; 60000 nM)	level (log10) (Perfluorobutanoic acid; 6700 nM)	level (log10) (Perfluorobutanoic acid; 20000 nM)	level (log10) (Perfluorobutanoic acid; 60000 nM)	level (log10) ([4]; 6700 nM)	level (log10) ([4]; 20000 nM)	level (log10) ([4]; 60000 nM)	level (log10) ([5]; 6700 nM)	level (log10) ([5]; 20000 nM)	level (log10) ([5]; 60000 nM)	level (log10) ([6]; 6700 nM)	level (log10) ([6]; 20000 nM)	level (log10) ([6]; 60000 nM)
CASM3C:CCL2/MCP-1	-0.0225 ± 0.0078	0.002 ± 0.014	0.003 ± 0.017	-0.017 ± 0.0057	-0.001 ± 0.0028	-0.0105 ± 0.012	0.021 ± 0.075	-0.0125 ± 0.0078	-0.025 ± 0.027	-0.001 ± 0.041	0.006	-0.0065 ± 0.012	0.0065 ± 0.016	-0.033 ± 0.037	-0.034 ± 0.027	0.021 ± 0.02	-0.0215 ± 0.018	-0.013 ± 0.0085	0.0035 ± 0.00071
3C:CD54/ICAM-1	-0.0005 ± 0.0064	0.0095 ± 0.0021	0.03 ± 0.013	0.075 ± 0.065	-0.008 ± 0.034	-0.017 ± 0.025	-0.002 ± 0.0099	-0.0185 ± 0.019	-0.029 ± 0.017	-0.03 ± 0.024	-0.016 ± 0.0014	-0.0105 ± 0.018	0.0025 ± 0.0092	-0.0005 ± 0.0092	-0.019 ± 0.0085	-0.0135 ± 0.0035	-0.002 ± 0.014	-0.008 ± 0.0042	0.005 ± 0.0099
HDF3CGF:Proliferation 72hr	0.103 ± 0.028	-0.046 ± 0.028	-0.391 ± 0.079	-0.746 ± 0.094	-0.054 ± 0.0057	-0.023 ± 0.0042	-0.099 ± 0.0014	0.01 ± 0.054	0.0145 ± 0.0021	0.0285 ± 0.029	-0.0415 ± 0.012	-0.03 ± 0.0042	0.066 ± 0.02	0.0035 ± 0.0035	0.008 ± 0.016	0.012 ± 0.035	0.054 ± 0.035	0.072 ± 0.051	0.107 ± 0.024
HDF3CGF:EGFR	0.033	0.005 ± 0.041	-0.102 ± 0.024	-0.115 ± 0.0021	0.012 ± 0.014	0.0065 ± 0.005	0.029 ± 0.041	-0.004 ± 0.041	-0.0155 ± 0.025	0.012 ± 0.0057	-0.0155 ± 0.054	0.0005 ± 0.019	0.0725 ± 0.12	-0.001 ± 0.0057	0.0145 ± 0.0021	0.0245 ± 0.035	0.0045 ± 0.025	-0.0125 ± 0.039	-0.021 ± 0.04
HDF3CGF:TIMP-1	0.014 ± 0.016	0.008 ± 0.017	0.005 ± 0.081	-0.0605 ± 0.074	0.0075 ± 0.023	0.002 ± 0.011	0 ± 0.055	-0.0165 ± 0.00071	-0.0085 ± 0.033	0.0085 ± 0.013	-0.015 ± 0.031	-0.007 ± 0.0014	0.0115 ± 0.021	-0.037 ± 0.0099	-0.009 ± 0.0028	0.041 ± 0.051	0.0145 ± 0.016	0.049 ± 0.021	0.094 ± 0.038
HDF3CGF:CCL2/MCP-1	-0.022 ± 0.0042	-0.005 ± 0.011	-0.0485 ± 0.005	-0.1335 ± 0.00071	-0.0005 ± 0.0078	-0.001 ± 0.013	0.0005 ± 0.0078	-0.008 ± 0.021	0.004 ± 0.014	0.017 ± 0.0014	-0.0385 ± 0.021	-0.018 ± 0.051	0.049 ± 0.0071	0 ± 0.016	0.005 ± 0.0071	0.0135 ± 0.016	0.009 ± 0.0057	0.007 ± 0.014	0.021 ± 0.031
CASM3C:CD141/Thrombomodulin	0.0015 ± 0.022	-0.0145 ± 0.0078	0.078 ± 0.014	0.191 ± 0.013	-0.0315 ± 0.012	0.0015 ± 0.0092	0.0225 ± 0.033	0.0145 ± 0.021	0.022 ± 0.0028	-0.0045 ± 0.037	-0.0005 ± 0.016	0 ± 0.081	-0.0145 ± 0.028	0.0045 ± 0.018	0.002 ± 0.0028	0.017 ± 0.0071	0.0005 ± 0.0064	0.0015 ± 0.005	-0.0055 ± 0.022
CASM3C:CXCL8/IL-8	-0.017 ± 0.011	-0.0145 ± 0.015	-0.0075 ± 0.016	-0.024 ± 0.0085	-0.003 ± 0.0085	-0.0195 ± 0.028	0.0215 ± 0.032	-0.001 ± 0.013	-0.0065 ± 0.005	0.008 ± 0.013	-0.003 ± 0.0057	0.004 ± 0.0042	0.0135 ± 0.033	0.016 ± 0.042	0.0125 ± 0.011	0.023 ± 0.0071	-0.006 ± 0.013	-0.003	0.026 ± 0.014
CASM3C:IL-6	-0.033 ± 0.024	0.003 ± 0.055	-0.0025 ± 0.0035	-0.0255 ± 0.044	-0.029 ± 0.0071	-0.017 ± 0.0028	0.0175 ± 0.043	-0.0295 ± 0.012	-0.0175 ± 0.021	0.0115 ± 0.044	-0.0125 ± 0.0035	0.0045 ± 0.023	0.0225 ± 0.021	-0.0065 ± 0.047	-0.014 ± 0.027	0.0285 ± 0.00071	-0.027 ± 0.017	-0.0225 ± 0.0021	-0.0025 ± 0.036
3C:CD141/Thrombomodulin	-0.0215 ± 0.022	-0.0055 ± 0.023	0.046 ± 0.03	0.261 ± 0.14	-0.007 ± 0.0085	-0.0185 ± 0.049	-0.0145 ± 0.039	-0.0095 ± 0.026	-0.0105 ± 0.026	-0.0105 ± 0.04	-0.0285 ± 0.0078	-0.008 ± 0.013	0.0035 ± 0.0035	-0.0265 ± 0.036	-0.0065 ± 0.023	0.0095 ± 0.028	-0.008 ± 0.035	-0.015 ± 0.023	-0.004 ± 0.0028
BE3C:MMP-1	0.0095 ± 0.069	0.0345 ± 0.0092	0.255 ± 0.03	0.328 ± 0.0071	-0.013 ± 0.02	-0.0335 ± 0.019	-0.0185 ± 0.0078	-0.004 ± 0.034	-0.0075 ± 0.013	0.021 ± 0.014	-0.033 ± 0.059	-0.0175 ± 0.0035	0.008 ± 0.051	-0.0085 ± 0.029	-0.023 ± 0.047	0.011 ± 0.025	0.0075 ± 0.00071	0.0375 ± 0.018	0.227 ± 0.042
MyoF:bFGF	0.001 ± 0.0099	0.012 ± 0.02	-0.01 ± 0.016	-0.025 ± 0.0042	0.012 ± 0.0057	0.0095 ± 0.0035	0.012 ± 0.011	0.0025 ± 0.0078	0.0095 ± 0.0078	0.0155 ± 0.0035	-0.023 ± 0.016	-0.007 ± 0.02	0.0045 ± 0.012	0.0075 ± 0.021	0.001 ± 0.0099	0 ± 0.018	0.0035 ± 0.005	0.005 ± 0.0085	0.004 ± 0.014
BE3C:tPA	-0.0145 ± 0.0021	-0.0015 ± 0.015	0.142 ± 0.0099	-0.036 ± 0.058	-0.006 ± 0.031	-0.015 ± 0.024	-0.0165 ± 0.00071	-0.025 ± 0.025	-0.025 ± 0.04	-0.037 ± 0.0099	-0.016 ± 0.0014	-0.0305 ± 0.012	-0.006 ± 0.016	-0.014 ± 0.018	-0.0135 ± 0.0035	-0.0015 ± 0.0021	-0.0105 ± 0.0064	0.0015 ± 0.0035	0.012 ± 0.0014
MyoF:SRB	0.0165 ± 0.013	0.006 ± 0.0057	-0.0265 ± 0.00071	-0.175 ± 0.07	-0.003	-0.007 ± 0.0042	-0.0035 ± 0.0035	0.0005 ± 0.0035	-0.001 ± 0.0085	-0.0125 ± 0.0035	0.0005 ± 0.013	0.002 ± 0.0085	0.0055 ± 0.0021	0 ± 0.011	-0.007 ± 0.0042	0.0065 ± 0.0078	0.003 ± 0.0057	-0.0045 ± 0.0035	-0.0165 ± 0.021
HDF3CGF:CXCL9/MIG	0.006 ± 0.0057	-0.001 ± 0.024	-0.0065 ± 0.015	-0.159 ± 0.023	-0.001 ± 0.013	0.0115 ± 0.023	-0.009 ± 0.028	-0.005 ± 0.021	-0.014 ± 0.0028	0.012 ± 0.024	-0.0015 ± 0.033	-0.0035 ± 0.025	-0.0125 ± 0.028	-0.0185 ± 0.016	0.0135 ± 0.0092	0.0085 ± 0.005	-0.0195 ± 0.0021	-0.017	0.005 ± 0.042
